From ChEMBL document CHEMBL4229455, “Synthesis and anticancer activity of novel bisindolylhydroxymaleimide derivatives with potent GSK-3 kinase inhibition” (Bioorg Med Chem, 2018)

Experiments:
COLO 205 = assay: Cytotoxicity against human COLO205 cells assessed as cell growth at 10 uM after 48 hrs by SRB assay relative to control; assay type: functional; conditions: COLO 205, 48 h, read-out: Activity
SK-MEL-28 = assay: Cytotoxicity against human SK-MEL-28 cells assessed as cell growth at 10 uM after 48 hrs by SRB assay relative to control; assay type: functional; conditions: SK-MEL-28, 48 h, read-out: Activity
786-0 = assay: Cytotoxicity against human 786-O cells assessed as cell growth at 10 uM after 48 hrs by SRB assay relative to control; assay type: functional; conditions: 786-0, 48 h, read-out: Activity
[1] = molecular target: CDK2/Cyclin A2 (Homo sapiens) (UniProt P24941+P20248); assay: Inhibition of full length human CDK2/cyclin A assessed as residual activity at 10 uM using histone H1 as substrate in presence of [gamma-33P]ATP; assay type: protein-complex assay
HOP-92 = assay: Cytotoxicity against human HOP92 cells assessed as cell growth at 10 uM after 48 hrs by SRB assay relative to control; assay type: functional; conditions: HOP-92, 48 h, read-out: Activity
MOLT-4 = assay: Cytotoxicity against human MOLT4 cells assessed as cell growth at 10 uM after 48 hrs by SRB assay relative to control; assay type: functional; conditions: MOLT-4, 48 h, read-out: Activity
HL-60(TB) = assay: Cytotoxicity against human HL-60(TB) cells assessed as cell growth at 10 uM after 48 hrs by SRB assay relative to control; assay type: functional; conditions: HL-60, 48 h, read-out: Activity
A498 = assay: Cytotoxicity against human A498 cells assessed as cell growth at 10 uM after 48 hrs by SRB assay relative to control; assay type: functional; conditions: A498, 48 h, read-out: Activity
NCI-H23 = assay: Cytotoxicity against human NCI-H23 cells assessed as cell growth at 10 uM after 48 hrs by SRB assay relative to control; assay type: functional; conditions: NCI-H23, 48 h, read-out: Activity
SF-539 = assay: Cytotoxicity against human SF539 cells assessed as cell growth at 10 uM after 48 hrs by SRB assay relative to control; assay type: functional; conditions: SF-539, 48 h, read-out: Activity
MDA-MB-231 = assay: Cytotoxicity against human MDA-MB-231 cells assessed as cell growth at 10 uM after 48 hrs by SRB assay relative to control; assay type: functional; conditions: MDA-MB-231, 48 h, read-out: Activity
SW-620 = assay: Cytotoxicity against human SW620 cells assessed as cell growth at 10 uM after 48 hrs by SRB assay relative to control; assay type: functional; conditions: SW-620, 48 h, read-out: Activity
LOX IMVI = assay: Cytotoxicity against human LOXIMVI cells assessed as cell growth at 10 uM after 48 hrs by SRB assay relative to control; assay type: functional; conditions: read-out: Activity
CCRF-CEM = assay: Cytotoxicity against human CCRF-CEM cells assessed as cell growth at 10 uM after 48 hrs by SRB assay relative to control; assay type: functional; conditions: read-out: Activity
[2] = molecular target: Dual specificity tyrosine-phosphorylation-regulated kinase 1A (Rattus norvegicus) (UniProt Q63470); assay: Inhibition of recombinant rat DYRK1A kinase domain expressed in bacteria assessed as residual activity at 10 uM using KKISGRLSPIMTEQ as substrate in presence of [gamma-33P]ATP
CDK2/Cyclin A2 = CDK2/Cyclin A2 (Homo sapiens, UniProt P24941); assay: Inhibition of full length human CDK2/cyclin A using histone H1 as substrate in presence of [gamma-33P]ATP; assay type: protein-complex assay
CAKI-1 = assay: Cytotoxicity against human Caki1 cells assessed as cell growth at 10 uM after 48 hrs by SRB assay relative to control; assay type: functional; conditions: CAKI-1, 48 h, read-out: Activity
Hs-578T = assay: Cytotoxicity against human Hs 578T cells assessed as cell growth at 10 uM after 48 hrs by SRB assay relative to control; assay type: functional; conditions: read-out: Activity
MDA-MB-435 = assay: Cytotoxicity against human MDA-MB-435 cells assessed as cell growth at 10 uM after 48 hrs by SRB assay relative to control; assay type: functional; conditions: MDA-MB-435, 48 h, read-out: Activity
UO-31 = assay: Cytotoxicity against human UO31 cells assessed as cell growth at 10 uM after 48 hrs by SRB assay relative to control; assay type: functional; conditions: UO-31, 48 h, read-out: Activity
T47D = assay: Cytotoxicity against human T47D cells assessed as cell growth at 10 uM after 48 hrs by SRB assay relative to control; assay type: functional; conditions: read-out: Activity
HCT-15 = assay: Cytotoxicity against human HCT15 cells assessed as cell growth at 10 uM after 48 hrs by SRB assay relative to control; assay type: functional; conditions: HCT-15, 48 h, read-out: Activity
SF-268 = assay: Cytotoxicity against human SF268 cells assessed as cell growth at 10 uM after 48 hrs by SRB assay relative to control; assay type: functional; conditions: SF-268, 48 h, read-out: Activity
MCF7 = assay: Cytotoxicity against human MCF7 cells assessed as cell growth at 10 uM after 48 hrs by SRB assay relative to control; assay type: functional; conditions: MCF7, 48 h, read-out: Activity
[3] = molecular target: Cyclin-dependent kinase 5/CDK5 activator 1 (Homo sapiens) (UniProt Q00535+Q15078); assay: Inhibition of recombinant full length human CDK5/p25 expressed in bacteria assessed as residual activity at 10 uM using histone H1 as substrate in presence of [gamma-33P]ATP
HT-29 = assay: Cytotoxicity against human HT-29 cells assessed as cell growth at 10 uM after 48 hrs by SRB assay relative to control; assay type: functional; conditions: HT-29, 48 h, read-out: Activity
[4] = Inhibition of domestic porcine brain full length […] using RRKHAAIGSpAYSITA as substrate in presence of [gamma-33P]ATP; design: species or system Sus scrofa domesticus
HOP-62 = assay: Cytotoxicity against human HOP62 cells assessed as cell growth at 10 uM after 48 hrs by SRB assay relative to control; assay type: functional; conditions: HOP-62, 48 h, read-out: Activity
[5] = molecular target: Serine/threonine-protein kinase pim-1 (Homo sapiens, UniProt P11309); assay: Inhibition of recombinant full length human PIM1 expressed in bacteria using histone H1 as substrate in presence of [gamma-33P]ATP
NCI-H226 = assay: Cytotoxicity against human NCI-H226 cells assessed as cell growth at 10 uM after 48 hrs by SRB assay relative to control; assay type: functional; conditions: NCI-H226, 48 h, read-out: Activity
Aurora kinase B = Aurora kinase B (Homo sapiens, UniProt Q96GD4); assay: Inhibition of recombinant full length human aurora B expressed in baculovirus infected Sf9 insect cells using MBP as substrate in presence of [gamma-33P]ATP
SNB-19 = assay: Cytotoxicity against human SNB19 cells assessed as cell growth at 10 uM after 48 hrs by SRB assay relative to control; assay type: functional; conditions: SNB-19, 48 h, read-out: Activity
K562 = assay: Cytotoxicity against human K562 cells assessed as cell growth at 10 uM after 48 hrs by SRB assay relative to control; assay type: functional; conditions: K562, 48 h, read-out: Activity
Malme-3M = assay: Cytotoxicity against human MALME-3M cells assessed as cell growth at 10 uM after 48 hrs by SRB assay relative to control; assay type: functional; conditions: read-out: Activity

Chain of Aurora kinase B (Q96GD4 whole entry): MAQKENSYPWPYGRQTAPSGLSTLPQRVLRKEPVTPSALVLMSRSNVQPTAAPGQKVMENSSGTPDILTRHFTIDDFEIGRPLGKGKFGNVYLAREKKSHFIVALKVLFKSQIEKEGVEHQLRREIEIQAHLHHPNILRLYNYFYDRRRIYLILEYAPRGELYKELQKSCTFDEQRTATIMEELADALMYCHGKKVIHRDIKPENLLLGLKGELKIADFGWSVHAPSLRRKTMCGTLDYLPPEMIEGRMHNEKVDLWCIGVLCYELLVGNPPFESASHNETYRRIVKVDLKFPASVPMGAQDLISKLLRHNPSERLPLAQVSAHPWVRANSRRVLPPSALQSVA
Chain of Serine/threonine-protein kinase pim-1 (P11309 whole entry): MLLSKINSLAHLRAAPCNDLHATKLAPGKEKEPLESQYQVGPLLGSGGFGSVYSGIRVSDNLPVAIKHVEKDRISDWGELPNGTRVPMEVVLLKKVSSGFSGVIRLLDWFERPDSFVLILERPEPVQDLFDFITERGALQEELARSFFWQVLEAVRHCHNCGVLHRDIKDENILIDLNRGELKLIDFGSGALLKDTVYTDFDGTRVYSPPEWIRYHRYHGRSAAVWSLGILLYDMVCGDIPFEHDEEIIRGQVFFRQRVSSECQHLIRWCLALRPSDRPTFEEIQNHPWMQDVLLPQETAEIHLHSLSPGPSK
Chain of Cyclin-dependent kinase 5/CDK5 activator 1 (Homo sapiens) (Q00535 whole entry): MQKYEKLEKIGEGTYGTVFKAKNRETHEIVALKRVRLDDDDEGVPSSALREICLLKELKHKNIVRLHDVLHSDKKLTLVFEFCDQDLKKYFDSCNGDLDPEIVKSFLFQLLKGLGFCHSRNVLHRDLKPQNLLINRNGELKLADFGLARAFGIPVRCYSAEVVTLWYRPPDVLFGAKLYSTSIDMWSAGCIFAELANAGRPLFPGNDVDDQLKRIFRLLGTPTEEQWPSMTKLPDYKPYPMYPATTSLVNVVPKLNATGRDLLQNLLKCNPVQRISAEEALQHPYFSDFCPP
Chain of Cyclin-dependent kinase 5/CDK5 activator 1 (Homo sapiens) (Q15078 99-307 partner limits assumed): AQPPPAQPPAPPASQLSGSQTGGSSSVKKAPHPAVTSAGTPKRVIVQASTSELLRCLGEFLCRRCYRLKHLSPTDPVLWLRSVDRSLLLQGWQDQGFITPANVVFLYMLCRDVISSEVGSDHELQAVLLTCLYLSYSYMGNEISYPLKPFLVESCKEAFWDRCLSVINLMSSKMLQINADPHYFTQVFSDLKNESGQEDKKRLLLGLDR

Compound	growth at 10 µM (COLO 205) [%]	growth at 10 µM (SK-MEL-28) [%]	growth at 10 µM (786-0) [%]	Activity [1] [%]	growth at 10 µM (MOLT-4) [%]	growth at 10 µM (HL-60(TB)) [%]	growth at 10 µM (A498) [%]	growth at 10 µM (NCI-H23) [%]	growth at 10 µM (SF-539) [%]	growth at 10 µM (MDA-MB-231) [%]	growth at 10 µM (SW-620) [%]	growth at 10 µM (LOX IMVI) [%]	growth at 10 µM (CCRF-CEM) [%]	Activity [2] [%]	IC50 (CDK2/Cyclin A2) [µM]	growth at 10 µM (CAKI-1) [%]	growth at 10 µM (Hs-578T) [%]	growth at 10 µM (MDA-MB-435) [%]	growth at 10 µM (UO-31) [%]	growth at 10 µM (T47D) [%]	also measured
Cn1cc(C2=C(c3cn(CCCCCC(=O)O)c4ccccc34)C(=O)N(O)C2=O)c2ccccc21	109	106	96.3	36	92.6	103	91.9	95.2	98.9	84.7	98.9	80	84.4	22	4	86.8	102	102	63.2	85.4	growth at 10 µM (HOP-92): 71.8%; growth at 10 µM (HCT-15): 96.5%; growth at 10 µM (SF-268): 99.5%; growth at 10 µM (MCF7): 90%; Activity [3]: 34%; growth at 10 µM (HT-29): 105%; IC50 [4]: > 10 µM; growth at 10 µM (HOP-62): 92%; IC50 [5]: > 10 µM; growth at 10 µM (NCI-H226): 91.3%; IC50 (Aurora kinase B): > 10 µM; growth at 10 µM (SNB-19): 104%; growth at 10 µM (K562): 103%
Cn1cc(C2=C(c3c[nH]c4ccccc34)C(=O)N(O)C2=O)c2ccccc21	86	92	82	77	79	72.8	79.1	76.9	95.5	59.5	87.7	51	82.2	46	> 10	61.5	96.3	17.1	40.5	60.9	growth at 10 µM (HCT-15): 74.8%; growth at 10 µM (SF-268): 90.4%; growth at 10 µM (MCF7): 30.9%; Activity [3]: 66%; growth at 10 µM (HT-29): 81.5%; growth at 10 µM (Malme-3M): 68.7%; IC50 [4]: > 10 µM; growth at 10 µM (HOP-62): 67.9%; IC50 [5]: 5 µM; growth at 10 µM (NCI-H226): 76.9%; IC50 (Aurora kinase B): > 10 µM; growth at 10 µM (SNB-19): 97.5%; growth at 10 µM (K562): 50.2%
CC(C)n1cc(C2=C(c3c[nH]c4ccccc34)C(=O)N(O)C2=O)c2ccccc21	98.5	116	77.9	71	77	82.6	93.5	88.2	97.3	89.5	106	58.8	95.8	73	> 10	78.3	111	102	67.9	86.7	growth at 10 µM (HCT-15): 99.9%; growth at 10 µM (SF-268): 104%; growth at 10 µM (MCF7): 77.1%; Activity [3]: 71%; growth at 10 µM (HT-29): 99.2%; growth at 10 µM (Malme-3M): 102%; IC50 [4]: > 10 µM; growth at 10 µM (HOP-62): 98.6%; IC50 [5]: > 10 µM; growth at 10 µM (NCI-H226): 102%; IC50 (Aurora kinase B): > 10 µM; growth at 10 µM (SNB-19): 111%; growth at 10 µM (K562): 86.3%
